What was measured:
[1] = test system: m-IMCD3 cells expressing PDE4 long forms; test: cAMP levels in assay media of PGE2-stimulated m-IMCD3 3D cell culture; assay type: cell-based; settings: Mus musculus, mIMCD3, compared to 100% for (DMSO + PGE2), read-out: cAMP level (% of PGE2-stimulated); for activity at 10 µM: 10 μM test compound; for activity at 3 µM: 3 μM test compound
Description: (§1) HEK 293 and MDCK cells (Public Health England, Cell Culture Collections) were maintained in Dulbecco's Modified Eagle's Medium (DMEM) supplemented with 10% (v/v) fetal bovine serum (FBS) (Seralab), 2 mM L-glutamine and 100 U/mL penicillin streptomycin cocktail (ThermoFisher); termed complete media. Clonal HEK 293 cell lines were maintained in complete media supplemented with 0.6 mg/ml G418 (Enzo Life Sciences). Mouse inner medullary collecting duct (m-IMCD3) cells [American Type Culture Collection (ATCC)] were maintained in media consisting of DMEM/Hams F-12 50/50 Mix (DMEM F12; Corning) supplemented with penicillin streptomycin cocktail (100 U/mL) and FBS (10% v/v) (DMEM F12-10% FBS).
Experiment 2: Reduction of CAMP Levels in m-IMCD3 Cell Culture Treated with PDE4 Long Form Activators
Activation of intracellular PDE4 long forms leads to a reduction of both intracellular CAMP and externalised cAMP (Omar et al., PNAS 116:13320-13329, 2019). This reduction may be measured in the cell culture media supernatant of 3D cystic cell cultures, such as in the m-IMCD3 cell cyst suppression assay described in Experiment 3.
Following the completion of the m-IMCD3 cell cyst suppression assay (Experiment 3), the CAMP levels in the assay media from individual or pooled assay wells was measured using a CAMP ELISA kit (Enzo Life Sciences) or a LANCE Ultra CAMP kit (PerkinElmer) according to the manufacturer's instructions.
Treatment with PDE4 long form activators reduced CAMP levels in PGE2-stimulated m-IMCD3 cell culture.

m-IMCD3 cells = test: Inhibition of PGE2-stimulated in vitro cyst formation in m-IMCD3 cells (3D culture); assay type: cell-based; settings: Mus musculus, mIMCD3, 144 h, mean cyst area, 100% for (DMSO + PGE2) and 0% for DMSO control, 6 days of culture; for activity at 10 µM: read-out: % Cyst area* after incubation with 10 μM test compound; for activity at 3 µM: read-out: % Cyst area* after incubation with 3 μM test compound
Description: as §1
Experiment 3: Inhibition of In Vitro Cyst Formation in m-IMCD3 Cells Treated with PDE4 Long Form Activators
The mouse Inner Medullary Collecting Duct cell line (m-IMCD3) spontaneously forms cystic spheroids in 3D culture with a Type 1 collagen/Matrigel extracellular matrix. This process can be stimulated with agents which raise intracellular cAMP and is used as an in vitro model for the formation of cystic structures in the kidneys of patients with ADPKD.
Rat Collagen I (Fisher Scientific) is prepared on ice by neutralising with 1M NaOH and diluting with a 2× volume of DMEM/F12+10% FBS. This is mixed 1:1.1 with ice cold Matrigel (Corning) for coating plates (coating mix), and 1:0.93 with Matrigel for cell plating (plating mix).
The assay is conducted in the wells of a 96-well plate culture dish using a total volume of 130 μL of collagen/Matrigel/DMEM F12-10% FBS suspension in growth media for each matrix plug per individual well. Initially, 30 μL of collagen/Matrigel/DMEM F12-10% FBS (coating mix) is added into the well of a 96 well plate and the collagen is set to a gel by incubating at 37° C. for at least 15 minutes. A second layer of 100 μL collagen/Matrigel suspension (plating mix) containing m-IMCD3 cells (2.75×10^6 m-IMCD3 cells per 96-well plate) is layered over the coating mix and the collagen/Matrigel/cell mix again set to a gel by incubating at 37° C. Cell cultures are maintained at 37° C. in an atmosphere of 5% CO2, 95% air.
Between 18 and 24 h after plating, test compound(s) as DMSO stock solutions [0.1% (v/v) final DMSO concentration] and PGE2 (100 nM final concentration) in DMEM F12-10% FBS are added in quadruplicate wells per condition. Media, together with the test compound and PGE2 are replenished after 2 or 3 days. After 6 days of culture z stack images of the wells are captured using the Nikon Eclipse Ti2-E microscope. Nikon General Analysis software is used to measure the following parameters in each well: the mean cyst area, the number of cysts, and the total cyst area.
PDE4 long form activators inhibited in vitro cyst formation in m-IMCD3 cells. Data are shown in Table 4 as mean cyst area (%), compared to 100% for (DMSO+PGE2) and 0% for DMSO control.

SMILES	activity at 10 µM [1]	activity at 10 µM (m-IMCD3 cells)	activity at 3 µM [1]	activity at 3 µM (m-IMCD3 cells)
O=C(CC1CCC(F)(F)CC1)N1CCc2nc(N3C4CCC3CNC4)ccc2C1 [Example 40, 1-(2-(3,8-diazabicyclo[3.2.1]octan-8-yl)-7,8-dihydro-1,6-naphthyridin-6(5H)-yl)-2-(4,4-difluorocyclohexyl)ethan-1-one]	43%	0%	–	–
CC(C)(C)CC(=O)N1CCc2nc(N3C4CCC3CNC4)ccc2C1 [Example 42, 1-(2-(3,8-diazabicyclo[3.2.1]octan-8-yl)-7,8-dihydro-1,6-naphthyridin-6(5H)-yl)-3,3-dimethylbutan-1-one]	–	0%	28%	–
CN1CC2CCC(C1)N2c1ccc2c(n1)CN(C(=O)NC1CCC(F)(F)CC1)C2 [Example 91, N-(4,4-difluorocyclohexyl)-2-(3-methyl-3,8-diazabicyclo[3.2.1]octan-8-yl)-5,7-dihydro-6H-pyrrolo[3,4-b]pyridine-6-carboxamide]	–	-5%	31%	–
O=C(CC1CCC(F)(F)CC1)N1CCc2nc(N3CCNCC3)ccc2C1 [Example 111, 2-(4,4-difluorocyclohexyl)-1-(2-(piperazin-1-yl)-7,8-dihydro-1,6-naphthyridin-6(5H)-yl)ethan-1-one]	38%	-3%	–	–
O=C(CC1CCCC1)N1CCc2nc(N3CCN4CCC[C@@H]4C3)ccc2C1 [Example 112, (R)-2-cyclopentyl-1-(2-(hexahydropyrrolo[1,2-a]pyrazin-2 (1H)-yl)-7,8-dihydro-1,6-naphthyridin-6(5H)-yl)ethan-1-one]	–	-6%	54%	–
O=C(CC1CCCC1)N1CCc2nc(N3CCN4CCC[C@H]4C3)ccc2C1 [Example 113, (S)-2-cyclopentyl-1-(2-(hexahydropyrrolo[1,2-a]pyrazin-2 (1H)-yl)-7,8-dihydro-1,6-naphthyridin-6(5H)-yl)ethan-1-one]	–	-4%	63%	–
O=C(CC1CCCC1)N1CCc2nc(C3CCNCC3)ccc2C1 [Example 114, 2-cyclopentyl-1-(2-(piperidin-4-yl)-7,8-dihydro-1,6-naphthyridin-6(5H)-yl)ethan-1-one]	–	-2%	47%	–
O=C(CC1CCCC1)N1CCc2nc(C3CCN(CCO)CC3)ccc2C1 [Example 115, 2-cyclopentyl-1-(2-(1-(2-hydroxyethyl)piperidin-4-yl)-7,8-dihydro-1,6-naphthyridin-6(5H)-yl)ethan-1-one]	–	-3%	32%	–
COc1ccccc1C(=O)N1CCc2nc(N3C4CCC3CNC4)ccc2C1 [Example 121, (2-(3,8-diazabicyclo[3.2.1]octan-8-yl)-7,8-dihydro-1,6-naphthyridin-6(5H)-yl)(2-methoxyphenyl)methanone]	–	–	44%	8%
Cc1ccccc1C(=O)N1CCc2nc(N3C4CCC3CNC4)ccc2C1 [Example 122, (2-(3,8-diazabicyclo[3.2.1]octan-8-yl)-7,8-dihydro-1,6-naphthyridin-6(5H)-yl)(o-tolyl)methanone]	–	–	66%	-1%
CC1(CC(=O)N2Cc3ccc(N4C5CCC4CNC5)nc3C2)CCCC1 [Example 129, 1-(2-(3,8-diazabicyclo[3.2.1]octan-8-yl)-5,7-dihydro-6H-pyrrolo[3,4-b]pyridin-6-yl)-2-(1-methylcyclopentyl)ethan-1-one]	–	2%	44%	–
O=C(Cc1ccccc1)N1CCc2nc(N3CCNCC3)ncc2C1 [Example 134, 2-phenyl-1-(2-(piperazin-1-yl)-7,8-dihydropyrido[4,3-d]pyrimidin-6(5H)-yl)ethan-1-one]	–	–	55%	7%
N#Cc1ccc(CC(=O)N2CCc3nc(N4C5CCC4CNC5)ncc3C2)cc1 [Example 136, 4-(2-(2-(3,8-diazabicyclo[3.2.1]octan-8-yl)-7,8-dihydropyrido[4,3-d]pyrimidin-6(5H)-yl)-2-oxoethyl)benzonitrile]	–	–	38%	1%
O=C(c1ccc(F)cc1)N1CCc2nc(N3CCNCC3)ncc2C1 [Example 147, (4-fluorophenyl)(2-(piperazin-1-yl)-7,8-dihydropyrido[4,3-d]pyrimidin-6(5H)-yl)methanone]	–	–	40%	4%
CCN1CCN(c2ccc3c(n2)CCN(C(=O)CC(C)(C)C)C3)CC1 [Example 150, 1-(2-(4-ethylpiperazin-1-yl)-7,8-dihydro-1,6-naphthyridin-6(5H)-yl)-3,3-dimethylbutan-1-one]	–	–	49%	-1%
O=C(CC1CCCC1)N1CCc2nc(N3C4CCCC3CNC4)ccc2C1 [Example 151, 1-(2-(3,9-diazabicyclo[3.3.1]nonan-9-yl)-7,8-dihydro-1,6-naphthyridin-6(5H)-yl)-2-cyclopentylethan-1-one]	–	–	51%	-8%
O=C(CC1CCCC1)N1CCc2nc(N3CC4CCCC(C3)N4)ccc2C1 [Example 152, 1-(2-(3,9-diazabicyclo[3.3.1]nonan-3-yl)-7,8-dihydro-1,6-naphthyridin-6(5H)-yl)-2-cyclopentylethan-1-one]	–	–	41%	-6%
O=C(CC1CCCC1)N1CCc2nc(N3C[C@@H]4C[C@H]3CN4)ccc2C1 [Example 155, 1-(2-((1S,4S)-2,5-diazabicyclo[2.2.1]heptan-2-yl)-7,8-dihydro-1,6-naphthyridin-6(5H)-yl)-2-cyclopentylethan-1-one]	–	–	63%	–
O=C(CC1CCCC1)N1CCc2nc(N3C[C@H]4C[C@@H]3CN4)ccc2C1 [Example 156, 1-(2-((1R,4R)-2,5-diazabicyclo[2.2.1]heptan-2-yl)-7,8-dihydro-1,6-naphthyridin-6(5H)-yl)-2-cyclopentylethan-1-one]	–	–	49%	4%
O=C(CC1CCCC1)N1CCc2cnc(N3C4CCC3CNC4)cc2C1 [Example 179, 1-(7-(3,8-diazabicyclo[3.2.1]octan-8-yl)-3,4-dihydro-2,6-naphthyridin-2 (1H)-yl)-2-cyclopentylethan-1-one]	–	–	–	1%
O=C(COc1ccc(F)cc1)N1CCc2nc(N3CCNCC3)ccc2C1 [Example 180, 2-(4-fluorophenoxy)-1-(2-(piperazin-1-yl)-7,8-dihydro-1,6-naphthyridin-6(5H)-yl)ethan-1-one]	–	–	–	11%
Cc1ncccc1-c1ccc2c(n1)CCN(C(=O)CC1CCCC1)C2 [Example 181, 2-cyclopentyl-1-(2-(2-methylpyridin-3-yl)-7,8-dihydro-1,6-naphthyridin-6(5H)-yl)ethan-1-one]	–	–	–	26%
Cc1cncc(-c2ccc3c(n2)CCN(C(=O)CC2CCCC2)C3)c1 [Example 182, 2-cyclopentyl-1-(2-(5-methylpyridin-3-yl)-7,8-dihydro-1,6-naphthyridin-6(5H)-yl)ethan-1-one]	–	–	–	50%
